Experimental data reported in patent US20240287138A1, “CYCLIC PEPTIDES FOR INHIBITING TNF RECEPTOR 1 ACTIVITY” (Merck Sharp & Dohme LLC, priority 2023, published 2024).
Numbered stars: 1 amine (or outer) side, 2 acyl side, 3 side chain; on linkers, the order of the positions; unused ones are H or OH. Bridge positions count the residues as written; N and C are the ends. Square brackets hold non-standard residues; d marks the D form. Peptide text beside a SMILES is read from it. * marks the point of attachment. Trp(βS-Me,7-OMe) = COc1cccc2c([C@H](C)[C@H](N)C(=O)O)c[nH]c12; X24 = O=C(O)c1ccc([C@@H](O)[C@H](N[*:1])C(=O)[*:2])cc1; Morpholine(3S-CO,6,6-Me2) = CC1(C)CN[C@H](C(=O)O)CO1; Trp(7-CN) = N#Cc1cccc2c(C[C@H](N)C(=O)O)c[nH]c12; Trp(7-Cl) = N[C@@H](Cc1c[nH]c2c(Cl)cccc12)C(=O)O; Phe(3-CONH2) = NC(=O)c1cccc(C[C@H](N)C(=O)O)c1; Phe(4-CONH2) = NC(=O)c1ccc(C[C@H](N)C(=O)O)cc1; Phe(4-COOH) = N[C@@H](Cc1ccc(C(=O)O)cc1)C(=O)O; 4Pal(3S-Me) = C[C@@H](c1ccncc1)[C@H](N)C(=O)O; Trp(7-aza) = N[C@@H](Cc1c[nH]c2ncccc12)C(=O)O; Pip(5R-OH) = O=C(O)[C@@H]1CC[C@@H](O)CN1; X1 = O=C([C@@H]1CC[C@H](N[*:1])C1)[*:2]; Isoxazole(3-carbonyl) = O=C(c1ccon1)*; Pip(4-aza) = O=C(O)[C@@H]1CNCCN1; hPhe = N[C@@H](CCc1ccccc1)C(=O)O; 4Pal = N[C@@H](Cc1ccncc1)C(=O)O; NMeE = CN[C@@H](CCC(=O)O)C(=O)O; dHyp = O=C(O)[C@H]1C[C@H](O)CN1; X7 = CC[C@@H](C(=O)[*:1])[*:2]; aThr = C[C@H](O)[C@H](N)C(=O)O; Ahp(2) = CCCCC[C@H](N)C(=O)O; αMeS = C[C@](N)(CO)C(=O)O; Carboxymethyl = O=C(O)C*; Nle = CCCC[C@H](N)C(=O)O; Dab = NCC[C@H](N)C(=O)O; Sar = CNCC(=O)O

What was measured:
[1] = molecular target: T1, TNFα-induced NF-κB signal transduction pathway (TNFR1 signaling) in THP-1 cells (Homo sapiens, UniProt P19438); experiment: THP-1 Lucia NF-κB reporter cell assay, inhibition of TNFα-induced NF-κB signaling; format: cell-based; conditions: THP-1 NF-κB Lucia reporter cells, 10 ng/mL TNFα, 16-18 h, secreted luciferase; read-out: THP-1 IC50
T1 sequence (P19438 30-455): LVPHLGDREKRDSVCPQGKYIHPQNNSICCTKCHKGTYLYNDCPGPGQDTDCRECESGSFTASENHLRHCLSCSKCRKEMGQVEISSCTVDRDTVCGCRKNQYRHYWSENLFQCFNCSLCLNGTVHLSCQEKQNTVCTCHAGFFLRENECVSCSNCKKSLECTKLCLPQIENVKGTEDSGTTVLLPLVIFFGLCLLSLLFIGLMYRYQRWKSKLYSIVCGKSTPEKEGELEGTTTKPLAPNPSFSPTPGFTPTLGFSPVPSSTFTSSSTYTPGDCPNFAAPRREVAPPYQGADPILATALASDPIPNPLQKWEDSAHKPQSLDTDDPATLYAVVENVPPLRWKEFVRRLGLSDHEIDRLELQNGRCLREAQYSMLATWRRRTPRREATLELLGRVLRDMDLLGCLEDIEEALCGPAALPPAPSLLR
Method in brief: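 Macrocyclic peptides were preincubated 1 h at 37 °C with THP-1 NF-κB-Lucia reporter cells (20,000 cells/well) in antibiotic-free RPMI 1640/10% FBS, then stimulated with 10 ng/mL human TNFα overnight (16-18 h). Secreted luciferase in supernatant was read by luminescence; IC50 from 4-parameter logistic fits.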

[2] = molecular target: T2, human TNFR1 extracellular domain (ECD) protein (Homo sapiens, UniProt P19438); experiment: SPR binding affinity to captured human TNFR1 ECD
T2 construct: HRV 3C protease cleavage site (C); 6His (C, cleaved yes); made in house; host or cells: Sf21 insect cells (baculovirus), secreted
T2 sequence (P19438 30-211): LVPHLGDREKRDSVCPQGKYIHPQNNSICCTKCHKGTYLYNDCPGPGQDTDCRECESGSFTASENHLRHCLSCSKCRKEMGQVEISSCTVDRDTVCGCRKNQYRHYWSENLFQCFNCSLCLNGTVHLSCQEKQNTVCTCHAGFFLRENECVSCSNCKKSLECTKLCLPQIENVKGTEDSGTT
Method in brief: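 Biotinylated avi-tagged human TNFR1 or TNFR2 ECD, expressed in Sf21 insect cells, captured on streptavidin SPR chip; peptide analytes run in 10 mM HEPES pH 7.4, 150 mM NaCl, 3 mM EDTA, 0.05% P20, 2% DMSO. kon and koff measured, affinity KA calculated.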

SMILES	IC50 [1] [nM]	Kd [2] [nM]
CCCC[C@@H]1NC(=O)[C@H](CC)SC[C@@H](C(N)=O)NC(=O)[C@H]([C@@H](C)c2c[nH]c3c(OC)cccc23)NC(=O)CN(C)C(=O)[C@H](Cc2ccc(O)cc2)NC(=O)[C@H](Cc2ccc(C(N)=O)cc2)NC(=O)[C@](C)(CO)NC(=O)[C@H](Cc2c[nH]c3c(Cl)cccc23)NC(=O)[C@H](Cc2ccc(C(=O)O)cc2)NC(=O)[C@H](CC(N)=O)NC(=O)[C@H](CCC(=O)O)N(C)C(=O)[C@H](Cc2c[nH]c3ncccc23)NC(=O)[C@@H]2CC[C@@H](O)CN2C(=O)[C@H](Cc2ccncc2)NC1=O [SEQ ID NO. 168] ([Nle][4Pal][Pip(5R-OH)][Trp(7-aza)][NMeE]N[Phe(4-COOH)][Trp(7-Cl)][αMeS][Phe(4-CONH2)]Y[Sar][Trp(βS-Me,7-OMe)]C-NH2; linker N-14 via X7)	1.2	0.37
COc1cccc2c([C@H](C)[C@@H]3NC(=O)CN(C)C(=O)[C@H](Cc4cccc(C(N)=O)c4)NC(=O)[C@H](Cc4ccc(C(N)=O)cc4)NC(=O)[C@](C)(CO)NC(=O)[C@H](Cc4c[nH]c5c(Cl)cccc45)NC(=O)[C@H](Cc4ccncc4)NC(=O)[C@H](CC(N)=O)NC(=O)[C@H]4C[C@H](O)CN4C(=O)[C@H](Cc4c[nH]c5ccccc45)NC(=O)[C@@H]4CC[C@@H](O)CN4C(=O)[C@H](Cc4ccncc4)NC(=O)[C@H](CCNC(=O)c4ccon4)NC(=O)[C@@H]4CC[C@@H](C4)NC3=O)c[nH]c12 [SEQ ID NO. 169] (cyclo([4Pal][Trp(7-Cl)][αMeS][Phe(4-CONH2)][Phe(3-CONH2)][Sar][Trp(βS-Me,7-OMe)][X1][Dab](Isoxazole(3-carbonyl))[4Pal][Pip(5R-OH)]W[dHyp]N))	0.6	0.08
CCCC[C@@H]1NC(=O)CSC[C@@H](C(N)=O)NC(=O)[C@H]([C@@H](C)c2c[nH]c3c(OC)cccc23)NC(=O)CN(C)C(=O)[C@H](Cc2ccc(O)cc2)NC(=O)[C@H](Cc2ccc(C(=O)O)cc2)NC(=O)[C@](C)(CO)NC(=O)[C@H](Cc2c[nH]c3c(Cl)cccc23)NC(=O)[C@H](Cc2ccncc2)NC(=O)[C@H](CC(N)=O)NC(=O)[C@H](CCC(=O)O)N(C)C(=O)[C@H](Cc2c[nH]c3ncccc23)NC(=O)[C@@H]2CNCCN2C(=O)[C@H](CCc2ccccc2)NC1=O [SEQ ID NO. 172] ({CH2CO}-[Nle][hPhe][Pip(4-aza)][Trp(7-aza)][NMeE]N[4Pal][Trp(7-Cl)][αMeS][Phe(4-COOH)]Y[Sar][Trp(βS-Me,7-OMe)]C-NH2; thioether N-14)	3.9	0.2
CCCCC[C@@H]1NC(=O)[C@@H]2CC[C@@H](C2)NC(=O)[C@H]([C@@H](C)c2c[nH]c3c(OC)cccc23)NC(=O)CN(C)C(=O)[C@H](Cc2cccc(C(N)=O)c2)NC(=O)[C@H](Cc2ccc(C(N)=O)cc2)NC(=O)[C@](C)(CO)NC(=O)[C@H](Cc2c[nH]c3c(C#N)cccc23)NC(=O)[C@H](Cc2ccncc2)NC(=O)[C@H](CC(N)=O)NC(=O)[C@H]2C[C@H](O)CN2C(=O)[C@H](Cc2c[nH]c3ccccc23)NC(=O)[C@@H]2CNCCN2C(=O)[C@H](Cc2ccncc2)NC1=O [SEQ ID NO. 174] (cyclo([4Pal][Trp(7-CN)][αMeS][Phe(4-CONH2)][Phe(3-CONH2)][Sar][Trp(βS-Me,7-OMe)][X1][Ahp(2)][4Pal][Pip(4-aza)]W[dHyp]N))	0.7	0.01
CCCC[C@@H]1NC(=O)CSC[C@@H](C(N)=O)NC(=O)[C@H]([C@@H](C)c2c[nH]c3c(OC)cccc23)NC(=O)CN(C)C(=O)[C@H](Cc2ccc(O)cc2)NC(=O)[C@H](Cc2ccc(C(=O)O)cc2)NC(=O)[C@](C)(CO)NC(=O)[C@H](Cc2c[nH]c3c(Cl)cccc23)NC(=O)[C@H](Cc2ccc(OCC(=O)O)cc2)NC(=O)[C@H](CC(N)=O)NC(=O)[C@H](CCC(=O)O)N(C)C(=O)[C@H](Cc2c[nH]c3ccccc23)NC(=O)[C@@H]2COC(C)(C)CN2C(=O)[C@H](Cc2ccncc2)NC1=O [SEQ ID NO. 179] ({CH2CO}-[Nle][4Pal][Morpholine(3S-CO,6,6-Me2)]W[NMeE]NY(Carboxymethyl)[Trp(7-Cl)][αMeS][Phe(4-COOH)]Y[Sar][Trp(βS-Me,7-OMe)]C-NH2; thioether N-14)	2.4	0.14
CCCC[C@@H]1NC(=O)CSC[C@@H](C(N)=O)NC(=O)[C@H]([C@@H](C)c2c[nH]c3c(OC)cccc23)NC(=O)CN(C)C(=O)[C@H](Cc2ccc(O)cc2)NC(=O)[C@H](Cc2ccc(C(=O)O)cc2)NC(=O)[C@](C)(CO)NC(=O)[C@H](Cc2c[nH]c3c(Cl)cccc23)NC(=O)[C@H](Cc2ccncc2)NC(=O)[C@H](CC(N)=O)NC(=O)[C@H](CCC(=O)O)N(C)C(=O)[C@H](Cc2c[nH]c3ncccc23)NC(=O)[C@H](CO)NC(=O)[C@H]([C@@H](C)c2ccncc2)NC1=O [SEQ ID NO. 180] ({CH2CO}-[Nle][4Pal(3S-Me)]S[Trp(7-aza)][NMeE]N[4Pal][Trp(7-Cl)][αMeS][Phe(4-COOH)]Y[Sar][Trp(βS-Me,7-OMe)]C-NH2; thioether N-14)	2	0.05
CCCC[C@@H]1NC(=O)[C@@H]2CC[C@@H](C2)NC(=O)[C@H]([C@@H](C)c2c[nH]c3c(OC)cccc23)NC(=O)CN(C)C(=O)[C@H](Cc2ccc(C(=O)O)cc2)NC(=O)[C@H](Cc2ccc(C(N)=O)cc2)NC(=O)[C@](C)(CO)NC(=O)[C@H](Cc2c[nH]c3c(Cl)cccc23)NC(=O)[C@H](Cc2ccncc2)NC(=O)[C@H]([C@H](C)O)NC(=O)[C@H]2C[C@H](O)CN2C(=O)[C@H](Cc2c[nH]c3ccccc23)NC(=O)[C@@H]2CC[C@@H](O)CN2C(=O)[C@H](Cc2ccncc2)NC1=O [SEQ ID NO. 187] (cyclo([4Pal][Trp(7-Cl)][αMeS][Phe(4-CONH2)][Phe(4-COOH)][Sar][Trp(βS-Me,7-OMe)][X1][Nle][4Pal][Pip(5R-OH)]W[dHyp][aThr]))	0.5	0.04
CCCC[C@@H]1NC(=O)[C@@H]2CC[C@@H](C2)NC(=O)[C@H]([C@@H](C)c2c[nH]c3c(OC)cccc23)NC(=O)CN(C)C(=O)[C@H]([C@H](O)c2ccc(C(=O)O)cc2)NC(=O)[C@H](Cc2ccc(C(N)=O)cc2)NC(=O)[C@](C)(CO)NC(=O)[C@H](Cc2c[nH]c3c(Cl)cccc23)NC(=O)[C@H](Cc2ccncc2)NC(=O)[C@H](CC(N)=O)NC(=O)[C@H]2C[C@H](O)CN2C(=O)[C@H](Cc2c[nH]c3ccccc23)NC(=O)[C@@H]2CC[C@@H](O)CN2C(=O)[C@H](Cc2ccncc2)NC1=O [SEQ ID NO. 188] (cyclo([4Pal][Trp(7-Cl)][αMeS][Phe(4-CONH2)][X24][Sar][Trp(βS-Me,7-OMe)][X1][Nle][4Pal][Pip(5R-OH)]W[dHyp]N))	0.8	0.03
CCCC[C@@H]1NC(=O)[C@@H]2CC[C@@H](C2)NC(=O)[C@H]([C@@H](C)c2c[nH]c3c(OC)cccc23)NC(=O)CN(C)C(=O)[C@H](Cc2ccc(C(N)=O)cc2)NC(=O)[C@H](Cc2ccc(C(N)=O)cc2)NC(=O)[C@](C)(CO)NC(=O)[C@H](Cc2c[nH]c3c(Cl)cccc23)NC(=O)[C@H](Cc2ccncc2)NC(=O)[C@H](CC(N)=O)NC(=O)[C@H](CCC(=O)O)N(C)C(=O)[C@H](Cc2c[nH]c3ncccc23)NC(=O)[C@@H]2CC[C@@H](O)CN2C(=O)[C@H](Cc2ccncc2)NC1=O [SEQ ID NO. 189] (cyclo([4Pal][Trp(7-Cl)][αMeS][Phe(4-CONH2)][Phe(4-CONH2)][Sar][Trp(βS-Me,7-OMe)][X1][Nle][4Pal][Pip(5R-OH)][Trp(7-aza)][NMeE]N))	0.6	0.1
